# Patent publication US20100160391A1, “Substituted Aminopyridines as Fluorescent Reporters for Amide Hydrolases” (priority 2006, published 2010)
# Like-named read-outs stand apart in the source and are kept apart here. Marks after values point to notes of the source that are not given here.
# Assays:
# [1] = Comparison of aqueous solubility of substrates (absorbance at 800 nm); format: physicochemical; conditions: 0.1 M phosphate buffer (pH 8.0), 1% ethanol, 37° C.
# Method: Comparison of aqueous solubility of substrates. The aqueous solubility of the aminopyridine derivatives (e.g., 13, 14) and the 7-aminocoumarin derivative (e.g., 15) was determined in clear 96-well styrene flat-bottom microtiter plates with a Spectra Max M2 spectrophotometer. Different concentrations of the substrates (13, 14 and 15; final concentration: 0.39, 0.78, 1.56, 3.13, 6.25, 12.5, 25, 50, 100, or 200 μM) in 200 μl 0.1 M sodium phosphate buffer (1% ethanol; pH 8.0) were used and the absorbance was recorded at a wavelength of 800 nm at 37° C. The measurements were performed in three replicates for each concentration.
# [2] = target: T1, microsomal fatty acid amide hydrolase (FAAH) (Homo sapiens, UniProt O00519); experiment: Lowest detection limits of microsomal FAAH toward colorimetric and fluorescent substrates; format: biochemical
# T1 construct: made in house; host or cells: Trichoplusia ni High Five cells infected with recombinant baculovirus Ac-hFAAH; microsomal fraction
# T1 sequence (O00519 1-579): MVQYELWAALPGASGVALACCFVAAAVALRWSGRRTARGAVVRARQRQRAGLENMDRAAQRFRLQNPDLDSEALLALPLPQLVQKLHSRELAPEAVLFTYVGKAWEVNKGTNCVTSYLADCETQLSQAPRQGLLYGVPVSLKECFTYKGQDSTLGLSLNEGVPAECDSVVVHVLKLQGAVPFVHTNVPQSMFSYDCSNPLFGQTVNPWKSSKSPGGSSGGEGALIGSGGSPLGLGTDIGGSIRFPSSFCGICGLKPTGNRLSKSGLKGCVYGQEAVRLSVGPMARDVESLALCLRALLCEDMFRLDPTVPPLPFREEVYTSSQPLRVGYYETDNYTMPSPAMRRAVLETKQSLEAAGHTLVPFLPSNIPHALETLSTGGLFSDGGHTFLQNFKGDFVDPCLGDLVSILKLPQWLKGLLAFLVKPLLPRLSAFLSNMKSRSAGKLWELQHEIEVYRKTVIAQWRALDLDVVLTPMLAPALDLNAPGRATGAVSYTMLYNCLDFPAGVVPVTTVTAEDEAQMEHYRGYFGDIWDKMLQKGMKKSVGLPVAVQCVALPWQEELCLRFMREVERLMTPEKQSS
# Method: (§1) Preparation of recombinant human FAAH. Transgenic expression of the human FAAH in a baculovirus system was performed by following the method described in Nishi et al., Arch. Biochem. Biophys., 445:115-123 (2006). The cDNA encoding human FAAH (GenBank Accession No. NM_001441) was amplified by PCR using a human liver cDNA library (Invitrogen; Carlsbad, Calif.) as a template. The primer pair was 5′-[…]-3′ and 5′-[…]-3′. BglII and EcoRI endonuclease sites (underlined) were incorporated just upstream of the start codon and downstream of the stop codon of the coding sequence of FAAH, respectively. The PCR products were cloned into a pCR2.1 vector (Invitrogen) and the nucleotide sequence was verified by DNA sequencing. The cDNA fragments were then excised and directionally ligated to the BglII and EcoRI sites of the baculovirus transfer vector pAcUW21 (Lopez-Ferber et al., Baculovirus transfer vectors, in “Baculovirus Expression Protocols,” Richardson (Ed.), pp 25-63, Humana Press, Totowa, N.J., 1995). Recombinant baculoviruses harboring the human FAAH gene, Ac-hFAAH, were generated by co-transfection of Spodoptera frugiperda-derived Sf21 cells with the recombinant transfer vector plasmid and Bsu36I-cleaved BacPAK6 viral DNA (Clontech Laboratories; Mountain View, Calif.) as described in O'Reilly et al., Baculovirus Expression Vectors: A Laboratory Manual, Oxford University Press, New York, 1992. Trichoplusia ni-derived High Five cells (1×10^6 cells/ml) were inoculated with a high titer of Ac-hFAAH. At 72 hours post-infection, the infected cells were harvested by centrifugation at 2,000×g for 20 min at 4° C. and suspended in 50 mM Tris-HCl (pH 8.0) containing 150 mM NaCl, 1 mM EDTA, 1 μM pepstatin, 100 μM leupeptin, and 0.1 mg/ml aprotinin. The cell suspension was then homogenized using a Polytron homogenizer and centrifuged at 10,000×g for 20 min at 4° C. The microsomal fraction was collected by ultracentrifugation of the supernatant at 100,000×g for 60 min at 4° C. The pellet was resuspended in 20 mM Tris-HCl (pH 8.0) containing 10% (w/v) glycerol and 1% (w/v) Triton-X 100 and stored at −80° C. until use.
# (§2) Comparison of the lowest detection limits of protein concentration of FAAH toward colorimetric and fluorescent substrates. In general, all assays were performed in 96-well styrene flat-bottom microtiter plates with a Spectra Max M2 spectrophotometer at 37° C. for […]. The total volume of each well was 201 μl consisting of 0.1 M sodium phosphate buffer (pH 8.0) (190 μl) containing 1% glycerol and 0.1% Triton-X 100, stock or diluted protein solution (10 μl), and the substrate solution (1 μl) in ethanol (final concentration 200 μM for 10, 11, 13 or 14) or in DMSO (final concentration 25 μM for 12, 15, or 16; 50 μM for 17). The lowest detection limits of microsomal fatty acid amide hydrolase (FAAH) by substrates were determined by the fact that the signal at 10 min after kinetic measurements are equal to or over three times the noise or basal line at 0 min. Colorimetric substrate (16) assays were performed in clear 96-well microtititer plates using an absorbance wavelength at 382 nm. The fluorescent substrates containing 5-amino-2-methoxypyridine (e.g., 10, 13) were measured at an excitation wavelength (302 nm), emission wavelength (396 nm), and auto cutoff wavelength (325 nm). Similarly, the fluorescent substrates containing 5-amino-2-methoxy-6-methylpyridine (e.g., 11, 14, and 17) were measured at an excitation wavelength (304 nm), emission wavelength (392 nm), and an auto cutoff wavelength of 325 nm. In addition, an excitation wavelength (366 nm), emission wavelength (496 nm), and auto cutoff wavelength (495 nm) were used for the substrates (e.g., 12 and 15) containing 7-amino-4-trifluoromethyl coumarin.
# [3] = target: T2, human FAAH, microsomes from FAAH cells (Homo sapiens, UniProt O00519); experiment: Specific activity, microsomes from FAAH cells; format: biochemical
# T2 construct: made in house; host or cells: Trichoplusia ni High Five cells infected with recombinant baculovirus Ac-hFAAH; microsomal fraction
# T2 sequence (O00519 1-579): T1 sequence (O00519 1-579)
# Method: as §1, §2
# Specific activity determination. The assays for specific activities were performed as described above for the sensitivity assay. […]
# amidases, human liver S9 = experiment: Specific activity, human liver S9; format: biochemical; conditions: pH 8.0, 37° C.; NM = not measurable at the same protein concentration as other substrates
# Method: as §2, with “Similarly, the fluorescent substrates containing 5-amino-2-methoxy-6-methylpyridine (e.g., 11, 14, and 17) were measured at an excitation wavelength (304 nm), emission wavelength (392 nm), and an auto cutoff wavelength of 325 nm. In addition, an excitation wavelength (366 nm), emission wavelength (496 nm), and auto cutoff wavelength (495 nm) were used for the substrates (e.g., 12 and 15) containing 7-amino-4-trifluoromethyl coumarin.” left out
# [4] = test system: amidases, human liver microsomes; experiment: Specific activity, human liver microsomes; format: biochemical
# Method: as §2
# Specific activity determination. The assays for specific activities were performed as described above for the sensitivity assay. The specific activity presented is based on the following: 1) the signal after a 10 min enzymatic reaction was at least 3 fold the baseline signal at 0 min, and 2) the amount of hydrolyzed substrate during a 10 min period was less than 10% of the total amount of the substrate added. To correct for protein-induced fluorescence quenching, a standard curve of 5-amino-2-methoxypyridine (6) or 5-amino-2-methoxy-6-methylpyridine (8) was constructed in the presence of the same protein concentration used for the assay of that enzyme.
# [5] = test system: amidases, microsomes from High Five cells; experiment: Specific activity, microsomes from High Five cells; conditions: pH 8.0, 37° C.; NM = not measurable at the same protein concentration as other substrates
# Method: Preparation of recombinant human FAAH. Transgenic expression of the human FAAH in a baculovirus system was performed by following the method described in Nishi et al., Arch. […] The cDNA encoding human FAAH (GenBank Accession No. NM—001441) was amplified by PCR using a human liver cDNA library (Invitrogen; Carlsbad, Calif.) as a template. The primer pair was 5′-[sequence]-3′ and 5′-[sequence]-3′. BglII and EcoRI endonuclease sites (underlined) were incorporated just upstream of the start codon and downstream of the stop codon of the coding sequence of FAAH, respectively. The PCR products were cloned into a pCR2.1 vector (Invitrogen) and the nucleotide sequence was verified by DNA sequencing. The cDNA fragments were then excised and directionally ligated to the BglII and EcoRI sites of the baculovirus transfer vector pAcUW21 (Lopez-Ferber et al., Baculovirus transfer vectors, in “Baculovirus Expression Protocols,” Richardson (Ed.), pp 25-63, Humana Press, Totowa, N.J., 1995). Recombinant baculoviruses harboring the human FAAH gene, Ac-hFAAH, were generated by co-transfection of Spodoptera frugiperda-derived Sf21 cells with the recombinant transfer vector plasmid and Bsu36I-cleaved BacPAK6 viral DNA (Clontech Laboratories; Mountain View, Calif.) as described in O'Reilly et al., Baculovirus Expression Vectors: A Laboratory Manual, Oxford University Press, New York, 1992. Trichoplusia ni-derived High Five cells (1×10^6 cells/ml) were inoculated with a high titer of Ac-hFAAH. At 72 hours post-infection, the infected cells were harvested by centrifugation at 2,000×g for 20 min at 4° C. and suspended in 50 mM Tris-HCl (pH 8.0) containing 150 mM NaCl, 1 mM EDTA, 1 μM pepstatin, 100 μM leupeptin, and 0.1 mg/ml aprotinin. The cell suspension was then homogenized using a Polytron homogenizer and centrifuged at 10,000×g for 20 min at 4° C. […]
# Comparison of the lowest detection limits of protein concentration of FAAH toward colorimetric and fluorescent substrates. […] The lowest detection limits of microsomal fatty acid amide hydrolase (FAAH) by substrates were determined by the fact that the signal at 10 min after kinetic measurements are equal to or over three times the noise or basal line at 0 min. Colorimetric substrate (16) assays were performed in clear 96-well microtititer plates using an absorbance wavelength at 382 nm. The fluorescent substrates containing 5-amino-2-methoxypyridine (e.g., 10, 13) were measured at an excitation wavelength (302 nm), emission wavelength (396 nm), and auto cutoff wavelength (325 nm). Similarly, the fluorescent substrates containing 5-amino-2-methoxy-6-methylpyridine (e.g., 11, 14, and 17) were measured at an excitation wavelength (304 nm), emission wavelength (392 nm), and an auto cutoff wavelength of 325 nm. […]
# [6] = Molar extinction coefficient of fluorescent reporters; format: physicochemical; conditions: H2O containing 1% ethanol, 290 nm, 30° C., 10-50 μM
# Method: Molar extinction coefficient. According to Beer's law, Aλ=ε*C*L, where Aλ is the absorbance at wavelength (λ nm); ε is called the molar extinction coefficient; L is the width of the sample cuvette; and C is the concentration of the solute. In this example, a series of concentrations falling between 10 and 50 μM (final concentration) for each fluorescent reporter was used for determination of the molar extinction coefficient. Assays were performed in a quartz cuvette (1 cm optical passage). 10 μl of a stock solution of a reporter in ethanol (1, 2, 3, 4, or 5 mM) was added to 990 μl H2O. The resulting mixture was degassed by sonication with ultrasonic cleaner Model 750 (VWR International; Wester, Pa.) for 10 seconds at a power level of 9. Measurements were performed with a Spectra Max M2 spectrophotometer (Molecular Devices; Sunnyvale, Calif.) at a wavelength of 290 nm. A slope (or extinction coefficient) was obtained by using an average absorbance of triplicate samples.
# [7] = Maximal excitation and emission wavelengths; format: physicochemical; conditions: 50 μM in 0.1 M phosphate buffer, 30° C.; SD ±2 nm
# Method: Maximal excitation and emission wavelengths. A stock solution in ethanol of each compound (10 μl, 5 mM) was added to 990 μl of sodium phosphate buffer (0.1 M, pH 8.0, final substrate concentration 50 μM) in a 1-cm quartz cuvette. The quartz cuvette was scanned from 200 to 500 nm for absorption spectra with a Spectra Max M2 spectrophotometer. Maximal excitation and emission wavelengths were obtained from scanning from 250 to 600 nm and 360 to 600 nm by a 2 nm interval at 30° C., respectively.
# [8] = 3-aminopyridine in water, from Weisstuch et al.; cited from earlier work
# [9] = cited from earlier work; for ØF, fluorescence quantum yield: in water, literature value
# [10] = pH 8.0, 37° C., NM = not measurable at the same protein concentration as other substrates
SMILES,aqueous solubility compared with coumarin substrate (15) [1],"base line, Average ([2]; 0 min, protein 0.11 (13), 0.67 (14), 100 (15), 0.5 (17) μg/well, 200 μM (13),(14), 25 μM (15), 50 μM (17))","signal, Average ([2]; 10 min, protein 0.11 (13), 0.67 (14), 100 (15), 0.5 (17) μg/well, 200 μM (13),(14), 25 μM (15), 50 μM (17))","Protein, lowest detection limit of microsomal FAAH (signal at 10 min ≥ three times base line) ([2]; pH 8.0, 37° C., 200 μM (13), (14), 50 μM (17))",lowest detection limit of protein ([2]; signal at 10 min equal to three times base line),"enhancement of activity, microsomes from FAAH-expressing cells compared with High Five cells [3]","Specific activity, Microsomes from FAAH cells [3, 10]","Specific activity, Human liver S9 (amidases, human liver S9)",preference of human liver microsomes for substrate (14) over (13) ([4]; Table 4),"Specific activity, Human liver microsomes [4, 10]",melting point,"Specific activity, Microsomes from High Five cells [5]","εmax, molar extinction coefficient [6]","Em, maximal emission wavelength [7]","Ex, maximal excitation wavelength [7]","εmax, molar extinction coefficient [8]","quantum yield ([9]; in 0.1 NH2SO4, Rusakowicz et al.)","quantum yield ([9]; in 1 N NaOH, Rusakowicz et al.)","ØF, fluorescence quantum yield [9]","ØF, fluorescence quantum yield ([9]; listed as 3-aminopyridine)"
"CCCCCCCC(=O)Nc1ccc(OC)nc1C [Compound 14, N-(6-methoxy-2-methylpyridin-3-yl) octanamide]",much higher solubility,194 RFU,728* RFU,0.67 μg/200 μ′,3.3 μg protein/ml,31 times,19.0 ± 0.5 nmol/min/mg protein,0.42 ± 0.01 nmol/min/mg protein,at least 15 times,6.90 ± 0.25 nmol/min/mg protein,67.4 to 68.2 °C,591 ± 18.4 pmol/min/mg protein,–,–,–,–,–,–,–,–
"Nc1cccnc1 [Compound 1, 3-aminopyridine]",–,–,–,–,–,–,–,–,–,–,–,–,2890 M⁻¹ cm⁻¹,378 nm,286 nm,2800 M⁻¹ cm⁻¹,1.07,0.03,0.32^d,0.32
